Test results from patent US4315010A, “Glaucine phosphate salts” (priority 1979, dated 1982).
Counter-ions that a name gives are not always drawn. Like-named read-outs stand apart in the source and are kept apart here.

Key:
[1] = Plasma concentrations of l- or d-glaucine after oral administration; assay type: in vivo; conditions: guinea pigs
Procedure: In other operations, l- and d-glaucine phosphate (2:3) were orally administered to separate guinea pigs and plasma concentrations of l- or d-glaucine were measured at intervals after dosing.

guinea pigs [2] = test: Antitussive test, citric acid aerosol-induced cough, oral dosing; assay type: in vivo; conditions: for ED50: Cavia porcellus, po, 1 h; for 95 percent confidence limits of the ED50: antitussive
Procedure: Separate groups of guinea pigs were orally administered various doses of a test compound, or distilled water for a control group. One hour after oral dosing, the guinea pigs were exposed to a 5 percent aerosol of citric acid for a 10 minute test period. The number of cough responses produced during the last five minutes of exposure to the citric acid aerosol was recorded and the dosage effect to suppress coughing in 50 percent of the guinea pigs (ED50) was calculated. An antitussive effect was recorded for a guinea pig when its total number of coughs during the 5 minute test period were at least two standard deviation units below the mean number of coughs per guinea pig in the control group. […];

mice [3] = assay type: in vivo; conditions: naloxone 100 mg/kg intraperitoneal after last dose
Procedure: Physical dependency liability was evaluated in mice by the procedure of Saelens, et al., Arch. Int. Pharmacodynam, 190:213-218, 1971. In this procedure, mice are administered increasing doses of a test compound at intervals on two consecutive days. The last dosage on the second day is followed by intraperitoneal injection of the morphine antagonist, naloxone, at a dosage of 100 mg/kg, and the mice are observed for characteristic jumping behaviour indicative of opiate withdrawals or morphine antagonism.

monkeys = test: Abuse potential, self-administration in codeine-habituated monkeys (Deneau et al.); assay type: in vivo; conditions: codeine 100 micrograms/kilogram per injection; d,l-glaucine phosphate substituted at 50, 100, 200 and 400 micrograms per kilogram injection
Source text: The abuse potential of d,l-glaucine phosphate was studied in two monkeys in a procedure similar to that described by Deneau, et al., Psychopharmacologia 16(1):30-48, 1969.
In this procedure, the test monkeys are restrained and a catheter inserted into the external jugular vein for injection of test substances in response to pressing a bar lever by the monkey. The test monkeys are first habituated to self-administer codeine at a rate of 100 micrograms/kilogram per injection. The self-administration rate of the two monkeys so trained and habituated was about 100 to 150 lever pushes per two hour session at the 100 microgram codeine level. […]

[4] = Stability of syrup under continuous light in amber and flint glass bottles; assay type: physicochemical; conditions: one month, ambient temperature, continuous light about 2000 Foot-candles, 43800 min
Procedure: In a procedure similar to that of Example 5, syrup formulations were prepared, placed in amber glass bottles and transparent (flint) glass bottles, and held under conditions of ambient temperature with continuous exposure to light. (About 2000 Foot-candles of combined fluorescent and incandescent light, for 24 hours/day.)

Acute lethality in mice = conditions: mouse, in vivo, oral, mortality within 72 hours
Procedure: In other operations, various dosages of d,l-glaucine phosphate (2:3) were administered to groups mice by the oral route or by intraperitoneal injection, and the dosage which is lethal to 50 percent of the mice (LD50) was calculated from the mortality observations within 72 hours after administration.

mice [5] = test: Analgesic activity, phenyl-p-quinone mouse writhing test (printed "writing test"); assay type: in vivo; conditions: 0.5 h, oral, 30 minutes prior to phenyl-p-quinone challenge
Procedure: Text compounds were evaluated for analgesic activity in the phenyl-p-quinone mouse writing test of Hendershot & Forsaith, J. Pharmacol. Exptl. Therap. 125(3) 237 (1959). The test compounds were administered orally 30 minutes prior to the phenyl-p-quinone challenge. In these operations, the oral ED50 's for d-glaucine. […]

[6] = Therapeutic ratio LD50/ED50; assay type: in vivo; conditions: mouse LD50, guinea pig ED50
[7] = Solubility in cough syrup vehicle; assay type: physicochemical; conditions: cough syrup vehicle of Example 4
Procedure: A cough syrup vehicle formulation was prepared containing the following pharmaceutically-acceptable excipients:
Water g.s. to 4 liters total

guinea pigs [8] = test: Antitussive test, citric acid aerosol-induced cough, intraperitoneal injection; assay type: in vivo; conditions: Cavia porcellus, ip
[9] = assay type: physicochemical; conditions: for Percentage Remaining after 3 months at, 40° C. / Percentage Remaining after 3 months at, 50° C. / Percentage Remaining after 3 months at, Ambient / assay after 12 months: syrup; for Percentage Remaining after 3 months at, 40° C. / Percentage Remaining after 3 months at, 50° C. / Percentage Remaining after 3 months at, Ambient: 131400 min; for assay after 12 months: 525600 min; for percent of original concentration retained in syrup: one month, d,l-glaucine phosphate 0.6 percent, others 0.2 percent, 43800 min
Procedure: Stability of d,l-glaucine phosphate was examined in the syrup vehicle of Example 4.
Syrups containing codeine phosphate, 0.2 percent contained 97.5, 104.5 or 100 percent, respectively, after one month at ambient temperature, 40° C. or 55° C. […] After three months, the percentage amount of antitussive agent remaining was as shown below.

[10] = listed as d,1-Glaucine . HBr, hydrobromide

With `COc1cc2c(cc1OC)-c1c(OC)c(OC)cc3c1[C@@H](C2)N(C)CC3` [l-glaucine phosphate, l-glaucine phosphate (2:3)] the “time within which high plasma levels of glaucine were produced” value [1] was at most 15 min, the ED50 (guinea pigs [2]; one hour before 5 percent citric acid aerosol, read-out: ED50, dosage effect to suppress coughing in 50 percent of the guinea pigs) was 10.9 mg/kg and the “95 percent confidence limits of the ED50” value (guinea pigs [2]) was 0.4-33.8 milligrams per kilogram.

For `COc1cc2c(cc1OC)-c1c(OC)c(OC)cc3c1C(C2)N(C)CC3` (racemic) [d,l-glaucine phosphate, d,l-Glaucine Phosphate], the “mice jumping after naloxone treatment” value (mice [3]) was “no jumping behaviour in any of the eight mice tested”, the “monkey response rate (self-administration)” value (monkeys) was 10-20 responses/two hour session and the “assay of syrup in amber glass bottles” value ([4]; amber glass) was 97.7%. For the same compound, the “assay of syrup in transparent (flint) glass bottles” value ([4]; flint glass) was 90%, the LD50 at 72 h (Acute lethality in mice) was at least 681 mg/kg and the ED50 (mice [5]) was 23 mg/kg. For the same compound, the “therapeutic ratio (LD50/ED50)” value ([6]; intraperitoneal) was 10, the “therapeutic ratio (LD50/ED50)” value ([6]; oral antitussive activity) was 38 and the solubility [7] was 10000 µg/mL. For the same compound, the “solubility in cough syrup vehicle per 5 milliliter dosage unit” value [7] was “about 50 milligrams per 5 milliliter dosage unit”, the ED50 (guinea pigs [2]; restated in the description, read-out: oral ED50, antitussive) was 17.8 mg/kg and the “95 percent confidence limits of the ED50” value (guinea pigs [2]) was 6.0-53.1 milligrams per kilogram. The ED50 (guinea pigs [8]) was 17.3 mg/kg, the “Percentage Remaining after 3 months at, 40° C.” value (shortened to “Percentage Remaining … 40° C.”) ([9]; 40° C.) was 101.1 Percentage and the “Percentage Remaining after 3 months at, 50° C.” value (“Percentage Remaining … 50° C.” for short) [9] was 98.7 Percentage. For the same compound, the “Percentage Remaining after 3 months at, Ambient” value (“Percentage Remaining … Ambient” below) [9] was 101.6 Percentage, the “assay after 12 months” value ([9]; 55° C., listed as phosphate salt) was 101.8% and the “percent of original concentration retained in syrup” value (“percent … in syrup” below) ([9]; 40° C.) was 100.0%. The “percent … in syrup” value ([9]; 55° C.) was 98.4% and the “percent … in syrup” value ([9]; ambient temperature) was 101.3%.

For `COc1cc2c(cc1OC)-c1c(OC)c(OC)cc3c1C(C2)N(C)CC3` (racemic) [d,l-glaucine hydrobromide], the “Percentage Remaining … 40° C.” value ([9]; 40° C., listed as d,1-Glaucine . HBr, hydrobromide) was 93.3 Percentage, the “Percentage Remaining … 50° C.” value [9, 10] was 91.4 Percentage and the “Percentage Remaining … Ambient” value [9, 10] was 100.8 Percentage. The “assay after 12 months” value ([9]; 55° C., hydrobromide) was 87.3%, the “percent … in syrup” value ([9]; 40° C., hydrobromide) was 96% and the “percent … in syrup” value ([9]; 55° C., hydrobromide) was 89.5%. For the same compound, the “percent … in syrup” value ([9]; ambient temperature, hydrobromide) was 99%.

In the case of `COc1ccc2c3c1O[C@H]1[C@@H](O)C=C[C@H]4[C@@H](C2)N(C)CC[C@@]341` [codeine, reference compound], the “monkey response rate (self-administration)” value (monkeys) is reported as 100-150 responses/two hour session.

In the case of `COc1cc2c(cc1OC)-c1c(OC)c(OC)cc3c1[C@H](C2)N(C)CC3` [d-glaucine phosphate, reference compound], the “ED50, dosage effect to suppress coughing in 50 percent of the guinea pigs” value (guinea pigs [2]; one hour before 5 percent citric acid aerosol, 60 min) is reported as 170.1 milligrams per kilogram.

With `COc1ccc2c3c1O[C@H]1[C@@H](O)C=C[C@H]4[C@@H](C2)N(C)CC[C@@]341` [codeine phosphate] the “mice jumping after naloxone treatment” value (mice [3]) was 2 of 6, the “total jumps after naloxone treatment” value (mice [3]) was 23 jumps total and the “95 percent confidence limits of the ED50” value (guinea pigs [2]) was 52.3-232.6 milligrams per kilogram. The “Percentage Remaining … 40° C.” value ([9]; 40° C.) was 101.1 Percentage, the “Percentage Remaining … 50° C.” value [9] was 88.4 Percentage and the “Percentage Remaining … Ambient” value [9] was 101.3 Percentage. For the same compound, the “percent … in syrup” value ([9]; 40° C.) was 104.5%, the “percent … in syrup” value ([9]; 55° C.) was 100% and the “percent … in syrup” value ([9]; ambient temperature) was 97.5%.
